Assay results taken from ChEMBL document CHEMBL1201862, “PubChem BioAssay data set” (2004).
The source made the active and inactive calls.

Experiments:
Cytochrome P450 2C19 = Cytochrome P450 2C19 (Homo sapiens, UniProt P33261); experiment: Cytochrome panel assay with activity outcomes. Panel member name: p450-cyp2c19 Compounds with AC50 equal or less than 10 uM are considered active; assay type: functional
Cytochrome P450 2C9 = Cytochrome P450 2C9 (Homo sapiens, UniProt P11712)
[1] = inhibitors of firefly luciferase expression or activity, dose response, H4 neuroglioma cells, luminescence (AID 1990); assay type: functional, cell-based
[2] = Luminescence Cell-Based Dose Response HTS to Identify Inhibitors of 5'UTR Stem-Loop Driven Prion Protein mRNA Translation in H4 Neuroglioblastoma Cells. [Related pubchem assays: 1827 (Project Summary), 1813 (Primary HTS)]; assay type: functional
[3] = inhibitors of SNCA 5'UTR-driven reporter translation, confirmation, H4 neuroglioma cells, luminescence (AID 1988); assay type: functional, cell-based
[4] = target: T1, Rac GTPase-activating protein 1 (Homo sapiens, UniProt Q9H0H5); experiment: MgcRacGAP GTPase-activating activity inhibitors, confirmation, biochemical, ADP Hunter fluorescence, primary and confirmatory (AID 624330); assay type: functional
T1 sequence (Q9H0H5 whole entry): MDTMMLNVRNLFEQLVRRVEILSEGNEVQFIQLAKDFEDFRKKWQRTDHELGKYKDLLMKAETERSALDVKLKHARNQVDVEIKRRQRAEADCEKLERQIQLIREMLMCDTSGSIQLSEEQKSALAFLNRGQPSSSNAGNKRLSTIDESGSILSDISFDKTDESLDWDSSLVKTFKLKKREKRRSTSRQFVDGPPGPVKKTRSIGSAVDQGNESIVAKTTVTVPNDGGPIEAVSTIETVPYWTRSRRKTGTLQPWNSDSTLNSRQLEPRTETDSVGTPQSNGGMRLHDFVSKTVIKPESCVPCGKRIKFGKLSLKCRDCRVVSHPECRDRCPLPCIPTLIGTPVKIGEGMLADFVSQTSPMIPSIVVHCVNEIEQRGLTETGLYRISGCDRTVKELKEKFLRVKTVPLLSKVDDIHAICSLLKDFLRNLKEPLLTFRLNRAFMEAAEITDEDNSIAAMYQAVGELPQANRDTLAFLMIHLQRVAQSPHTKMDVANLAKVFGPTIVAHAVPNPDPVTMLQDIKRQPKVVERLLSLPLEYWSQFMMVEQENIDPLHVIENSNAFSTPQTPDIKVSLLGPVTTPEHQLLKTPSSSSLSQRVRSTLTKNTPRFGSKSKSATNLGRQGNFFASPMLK

[5] = system: Streptococcus sp. 'group A'; experiment: growth inhibition of control SK(-) GAS strain, dose response, counter-screen for streptokinase expression inhibitor project, luminescence, kanamycin, BacTiterGlo, confirmation (AID 1900); assay type: functional, organism-based
Streptokinase A = target: T2, Streptokinase A (Streptococcus pyogenes serotype M1, UniProt P10520); experiment: S. pyogenes streptokinase expression inhibitors, potency, dose response, plasminogen activation absorbance, OD405 (AID 1914); assay type: functional, Streptococcus pyogenes M1 GAS;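 note: secreted streptokinase activity via plasminogen activation per viability signal from cell pellet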
T2 sequence (P10520 whole entry): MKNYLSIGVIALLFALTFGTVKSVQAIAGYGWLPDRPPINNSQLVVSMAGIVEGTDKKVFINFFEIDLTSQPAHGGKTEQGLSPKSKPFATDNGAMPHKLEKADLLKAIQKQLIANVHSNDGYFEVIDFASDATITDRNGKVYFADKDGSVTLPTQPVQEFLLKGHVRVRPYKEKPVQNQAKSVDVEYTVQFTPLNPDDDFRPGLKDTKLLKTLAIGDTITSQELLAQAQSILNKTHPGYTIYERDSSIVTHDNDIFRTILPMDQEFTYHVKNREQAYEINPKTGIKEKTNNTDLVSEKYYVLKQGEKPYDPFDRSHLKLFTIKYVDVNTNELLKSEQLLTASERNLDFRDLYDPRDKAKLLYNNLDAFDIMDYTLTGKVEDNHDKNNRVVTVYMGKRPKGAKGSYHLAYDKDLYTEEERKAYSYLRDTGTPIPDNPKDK

Streptococcus = experiment: Group A Streptococcus viability loss, dose response, counter-screen for streptokinase expression inhibitor project, luminescence, BacTiterGlo (AID 1915); assay type: functional, organism-based;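 note: potency for reduction of bacterial viability or growth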
INS1 = experiment: beta cell apoptosis inhibitors, cytokine rescue, dose response, luminescence, retest (AID 449756); assay type: functional, cell-based; conditions: Rattus norvegicus;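 note: cell death triggered by IL-1 beta plus TNF-alpha plus IFN-gamma mixture; protective hits raise ATP signal compared with cytokine alone wells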
[6] = HEp-2 cell cytotoxicity, dose response, cytotoxicity control for RSV inhibitor project, HTS (AID 2410); assay type: functional; conditions: human respiratory syncytial virus
[7] = Luminescence Cell-Based Dose Retest to Confirm Inhibitors of Cancer Stem Cells. [Related pubchem assays (depositor defined):AID2717, AID2721]; assay type: functional; conditions: Homo sapiens
Paired box protein Pax-8 = Paired box protein Pax-8 (Homo sapiens, UniProt Q06710); experiment: inhibitors of PAX8-driven TPO luciferase reporter, dose response, RMG-I cells, cherry-pick (AID 687027); assay type: functional, cell-based;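 note: luciferase reporter driven by Pax8 target thyroperoxidase promoter measured by SteadyGlo luminescence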
Paired box protein Pax-8, sequence (Q06710 whole entry): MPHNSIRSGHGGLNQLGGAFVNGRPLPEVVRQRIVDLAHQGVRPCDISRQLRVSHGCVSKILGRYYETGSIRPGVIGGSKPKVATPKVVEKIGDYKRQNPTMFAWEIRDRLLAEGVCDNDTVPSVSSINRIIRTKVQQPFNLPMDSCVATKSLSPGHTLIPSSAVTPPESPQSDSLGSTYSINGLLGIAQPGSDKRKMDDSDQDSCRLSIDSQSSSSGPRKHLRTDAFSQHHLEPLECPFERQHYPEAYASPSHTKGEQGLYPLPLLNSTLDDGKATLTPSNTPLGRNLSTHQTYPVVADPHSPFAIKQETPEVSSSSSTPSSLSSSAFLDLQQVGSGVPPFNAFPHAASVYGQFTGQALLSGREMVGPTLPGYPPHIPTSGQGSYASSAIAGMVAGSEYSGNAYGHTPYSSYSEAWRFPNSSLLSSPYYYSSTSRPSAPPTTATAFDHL

Cytochrome P450 2C9, sequence (P11712 whole entry): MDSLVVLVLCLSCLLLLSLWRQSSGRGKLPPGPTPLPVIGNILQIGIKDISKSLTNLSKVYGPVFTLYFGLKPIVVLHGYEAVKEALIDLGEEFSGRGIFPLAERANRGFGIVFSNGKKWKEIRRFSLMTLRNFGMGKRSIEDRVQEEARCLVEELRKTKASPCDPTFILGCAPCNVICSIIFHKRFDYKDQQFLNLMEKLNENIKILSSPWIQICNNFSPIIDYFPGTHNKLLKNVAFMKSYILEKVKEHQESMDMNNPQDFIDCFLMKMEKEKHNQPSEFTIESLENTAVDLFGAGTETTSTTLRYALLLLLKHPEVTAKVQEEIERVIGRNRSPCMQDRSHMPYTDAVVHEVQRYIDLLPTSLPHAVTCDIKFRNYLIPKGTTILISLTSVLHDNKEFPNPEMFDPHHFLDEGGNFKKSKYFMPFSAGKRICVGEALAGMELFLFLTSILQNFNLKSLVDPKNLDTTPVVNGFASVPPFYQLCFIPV
Cytochrome P450 2C19, sequence (P33261 whole entry): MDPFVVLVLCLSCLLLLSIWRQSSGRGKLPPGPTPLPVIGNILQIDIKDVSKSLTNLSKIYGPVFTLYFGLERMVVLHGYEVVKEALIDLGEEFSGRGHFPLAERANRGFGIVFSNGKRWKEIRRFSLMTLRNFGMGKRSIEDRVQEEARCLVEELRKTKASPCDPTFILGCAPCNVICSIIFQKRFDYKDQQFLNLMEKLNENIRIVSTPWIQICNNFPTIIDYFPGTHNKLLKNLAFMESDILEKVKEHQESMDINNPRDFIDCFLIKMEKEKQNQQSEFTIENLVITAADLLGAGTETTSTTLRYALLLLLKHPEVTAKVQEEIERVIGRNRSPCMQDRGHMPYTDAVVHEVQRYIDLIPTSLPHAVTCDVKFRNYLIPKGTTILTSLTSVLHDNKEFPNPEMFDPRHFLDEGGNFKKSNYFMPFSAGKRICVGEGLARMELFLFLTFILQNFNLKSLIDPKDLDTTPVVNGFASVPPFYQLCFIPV

With `CC(Cc1ccccc1)NC(=O)CSc1nc2nc3c(cc2c(=O)n1-c1ccccc1)COC(C)(C)C3` (stereo not given) the AC50 (Cytochrome P450 2C19; read-out: AC50) was 35.5 µM (inconclusive) and the AC50 (Cytochrome P450 2C9) was 15.8 µM (inconclusive).
For `COc1ccc(N2CCCC2)c(NC(=O)COc2ccccc2Cl)c1`, the EC50 [1] was 13.9 µM (active), the EC50 [2] was > 120 µM (not active) and the EC50 [3] was 13.1 µM (active).
With `COc1cc2cc(-c3ccc(O)cc3O)nc(C)c2cc1OC` the IC50 [4] was 29.9 µM (active).
For `Nc1nc(-c2ccc(NC(=O)c3ccco3)cc2)cs1`, the EC50 [2] was 11.7 µM (inconclusive) and the EC50 [3] was 8.2 µM (inconclusive).
For `Cc1cccc(Oc2nc(-c3ccncc3)nc3ccccc23)c1`, the EC50 [5] was 10.9 µM (active), the EC50 (Streptokinase A) was > 150 µM (not active) and the EC50 (Streptococcus) was 12.5 µM (active).
In the case of `CCS(=O)(=O)N1Cc2ccccc2CC1C(=O)Nc1nnc(SCc2ccc(F)cc2)s1` (stereo not given), the EC50 [5] was 8.48 µM (active), the EC50 (Streptokinase A) was > 150 µM (not active) and the EC50 (Streptococcus) was 91.2 µM (active).
With `Nc1nn2c(O)c3c(nc2c1N=Nc1ccc(Cl)cc1)CCCC3` the EC50 [5] was 6.99 µM (active), the EC50 (Streptokinase A) was > 150 µM (not active) and the EC50 (Streptococcus) was > 150 µM (not active).
In the case of `O=c1[nH]c(=O)n(Cc2ccco2)c2c1C(C(F)(F)F)(C(F)(F)F)NC(c1ccc(F)cc1)=N2`, the AC50 (INS1) was 3.11 µM (active).
In the case of `CN(C)CCCN(C(=O)COc1ccc(Cl)cc1)c1nc2cc3c(cc2s1)OCO3`, the AC50 (INS1) was 14.2 µM (active).
With `COc1ccc(/C=C/c2nc3cc(-c4ccccc4)ccc3o2)cc1O` the CC50 [6] was 36.3 µM (active) and the AC50 [7] was 4.06 µM (active).
For `CNc1oc(-c2ccc(Cl)cc2)nc1P(=O)(c1ccccc1)c1ccccc1`, the AC50 [7] was 7.13 µM (active).
For `O=C(COCc1cc(-c2ccc3c(c2)OCO3)on1)N1CCN(c2cccc(C(F)(F)F)c2)CC1`, the AC50 [7] was 1.51 µM (active).
In the case of `CCCCCSc1nnc(C)c(O)n1`, the AC50 (Cytochrome P450 2C19; read-out: AC50) was 39.8 µM (inconclusive) and the AC50 (Cytochrome P450 2C9) was 8.91 µM (inconclusive).
For `CCCCN1C(=O)C(NC(=O)c2cccnc2)(C(F)(F)F)C2=C1CC(C)(C)CC2=O` (stereo not given), the AC50 (Cytochrome P450 2C19) was “inconclusive” and the AC50 (Cytochrome P450 2C9) was 35.5 µM (inconclusive).
In the case of `Cc1cccc(C(=O)NN(C)c2nc(-c3ccccc3)nnc2C(F)(F)F)c1`, the AC50 (Cytochrome P450 2C19; read-out: AC50) was 0.708 µM (inconclusive) and the AC50 (Cytochrome P450 2C9) was 0.316 µM (inconclusive).
With `C/C(=N\NC(=S)NCc1ccccc1)c1cccc(Br)c1` the EC50 [5] was 8.85 µM (active), the EC50 (Streptokinase A) was > 150 µM (not active) and the EC50 (Streptococcus) was > 150 µM (not active).
For `COc1ccc(NC(=O)c2cc3ccc(O)cc3o/c2=N\O)cc1`, the AC50 [7] was 5.22 µM (active) and the IC50 [4] was 42 µM (active).
For `C[C@@H]1CN([C@@H](C)CO)C(=O)c2cc(NC(=O)NC3CCCCC3)ccc2O[C@@H](C)CCCCO[C@H]1CN(C)Cc1ccc(C(F)(F)F)cc1`, the AC50 (Paired box protein Pax-8) was 11.5 µM (active).
In the case of `C[C@@H]1CN([C@H](C)CO)C(=O)c2c(c3ccccc3n2C)-c2ccccc2CO[C@@H]1CN(C)C`, the AC50 (Paired box protein Pax-8) was 66.1 µM (active).
With `C[C@@H]1CN([C@H](C)CO)C(=O)c2cc(NC(=O)Nc3ccc(F)cc3)ccc2O[C@@H](C)CCCCO[C@H]1CN(C)C(=O)Nc1ccc(F)cc1` the AC50 (Paired box protein Pax-8) was 10.8 µM (active).
For `CCOc1ccc(/C=N/NC(=S)NC2CC3CC2C2C=CCC32)cc1` (stereo not given), the EC50 [5] was 14.4 µM (active), the EC50 (Streptokinase A) was > 150 µM (not active) and the EC50 (Streptococcus) was 19.8 µM (active).
With `C/C(=N\NC(=O)c1ccc(NS(=O)(=O)c2cccs2)cc1)c1ccccn1` the AC50 (INS1) was 3.08 µM (active).
With `C/C(=C\C(=O)c1ccccc1)Nc1ccc(O)cc1` the IC50 [4] was 20.2 µM (active).
With `Cc1ccc(C2CC(c3cccs3)=NN2C(=O)c2ccc(Br)o2)cc1` (stereo not given) the EC50 [5] was 3.12 µM (active), the EC50 (Streptokinase A) was > 150 µM (not active) and the EC50 (Streptococcus) was 34.1 µM (active).
